Patent US8653071B2, “α4β2 neuronal nicotinic acetylcholine receptor ligands” (Suven Life Sciences Limited, priority 2009, dated 2014)
Structures can show the parent of a compound that is named as a salt.

Assays:
[1] = molecular target: Nicotinic Acetylcholine α4β2 Receptor (UniProt P09483+P12390); test: Binding assay for human or rat nicotinic acetylcholine α4β2 receptor ([3H]Cytisine displacement); details: [3H]Cytisine 2.5 nM; rat brain frontal cortex or recombinant human receptor in CHO cells (not specified which); read-out: Ki
Protocol: Binding Assay for Human or Rat Nicotinic Acetylcholine α4β2 Receptor
• Receptor source: Rat brain frontal cortex or recombinant human cDNA expressed in CHO cells • Radioligand: [^3H]Cytisine 15-40 Ci/mmole • Final ligand concentration—[2.5 nM] • Non-specific determinant: Epibatidine—[0.1 μM] • Reference compound: Epibatidine • Positive control: Epibatidine Incubation Conditions:
Increasing concentrations of test compounds or standard were incubated with membrane receptors and radioligand in 120 mM NaCl, 2.5 mM KCl, 1 mM CaCl2, 1 mM MgCl2 and 50 mM TRIS-HCl (pH 7.4) for 60 minutes at room temperature. The reaction was terminated by rapid vacuum filtration onto the glass fiber filters. Radioactivity trapped onto the filters was determined and compared to the control values in order to ascertain any interactions of the test compound(s) with either cloned human or rat receptor binding site.
Literature Reference: Bunnelle W. H., Daanen J. F., Ryther K. B., Schrimpf M. R., Dart M. J., Gelain A., Meyer M. D., Frost J. M., Anderson D. J., Buckley M., Curzon P., Cao Y-J., Puttfarcken P., Searle X., Ji J., Putman C. B., Surowy C., Toma L. and Barlocco D. Structure-Activity Studies and Analgesic Efficacy of N-(3-Pyridinyl)-Bridged Bicyclic Diamines, Exceptionally Potent Agonists at Nicotinic Acetylcholine Receptors. J. Med. Chem. 2007, 50, […].

Male Wister rats = test: Object recognition task model; type: in vivo, rat; details: p.o.; for Exploration time mean ± S.E.M, Familiar object / Exploration time mean ± S.E.M, Novel object: choice trial
Protocol: Object Recognition Task Model
The cognition-enhancing properties of compounds of this invention were estimated using a model of animal cognition: the object recognition task model.
Male Wister rats (230-280 grams) obtained from N. I. N. (National Institute of Nutrition, Hyderabad, India) was used as experimental animals. Four animals were housed in each cage. […] Also the rats were habituated to individual arenas for 1 hour in the absence of any objects.
One group of 12 rats received vehicle (1 mL/Kg) orally and another set of animals received compound of the formula (I) either orally or i.p., before one hour of the familiar (T1) and choice trial (T2).
The experiment was carried out in a 50×50×50 cm open field made up of acrylic. In the familiarization phase, (T1), the rats were placed individually in the open field for 3 minutes, in which two identical objects (plastic bottles, 12.5 cm height×5.5 cm diameter) covered in yellow masking tape alone (a1 and a2) were positioned in two adjacent corners, 10 cm. from the walls. After 24 hours of the (T1) trial for long-term memory test, the same rats were placed in the same arena as they were placed in T1 trial. Choice phase (T2) rats were allowed to explore the open field for 3 minutes in presence of one familiar object (a3) and one novel object (b) (Amber color glass bottle, 12 cm high and 5 cm in diameter). Familiar objects presented similar textures, colors and sizes. During the T1 and T2 trial, explorations of each object (defined as sniffing, licking, chewing or having moving vibrissae whilst directing the nose towards the object at a distance of less than 1 cm) were recorded separately by stopwatch. Sitting on an object was not regarded as exploratory activity, however, it was rarely observed.
T1 is the total time spent exploring the familiar objects (a1+a2).
T2 is the total time spent exploring the familiar object and novel object (a3+b).
The object recognition test was performed as described by Ennaceur, A., Delacour, J., 1988, A new one-trial test for neurobiological studies of memory in rats—Behavioural data, Behav. Brain Res., 31, 47-59.

[2] = Rodent pharmacokinetic study; type: in vivo; details: Wistar, plasma, Wister rat/Male; for bioavailability: 5 mg/kg Per-Oral vs 5 mg/kg Intravenous; for AUC(0-t) / Cmax / Tmax / half-life: 5 mg/kg
Protocol: Rodent Pharmacokinetic Study
Three to five animals were housed in each cage. Animals were kept fasted over night and maintained on a 12 hours light/dark cycle. Three rats were dosed NCE orally (15 or 5 mg/kg) and intravenously (5 mg/kg) on day 0 and day 2
At each time point blood was collected by jugular vein. Plasma was stored frozen at −20° C. until analysis. The concentrations of the NCE compound in plasma were determined using LC-MS/MS method. Schedule time points: Pre dose 0.25, 0.5, 1, 1.5, 2, 3, 4, 6, 8, 10, 12 and 24 hours after dosing (n=3).
Pharmacokinetic parameters Cmax, Tmax, AUCt, T1/2 and Bioavailability were calculated by non-compartmental model using software WinNonlin version 5.0.1.

Compound | Ki [1] | other results
CNCC1CC2CC2N1c1cncc(Cl)c1.O=C(O)/C=C/C(=O)O (stereo not drawn) [Example 12, N-[2-(5-Chloropyridin-3-yl)-2-azabicyclo[3.1.0]hex-3-ylmethyl]methylamine fumarate] | 77.3 nM | Inference (Male Wister rats; 1 mg/kg): Active; Exploration time mean ± S.E.M, Familiar object (Male Wister rats; 1 mg/kg): 4.651 ± 0.619 s; Exploration time mean ± S.E.M, Novel object (Male Wister rats; 1 mg/kg): 16.70 ± 2.136 s
CNCC1CC2CC2N1c1cncc(C)c1 (stereo not drawn) [Example 27, N-(2-(3-methylpyridin-5-yl)-2-azabicyclo[3.1.0]hex-3-ylmethyl)methyl amine bistartarate] | 253 nM | 
NCC1CC2CC2N1C(=O)c1cncc(Br)c1 (stereo not drawn) [Example 36, (3-Aminomethyl-2-azabicyclo[3.1.0]hex-2-yl) (5-bromo pyridin-3-yl) methanone tartrate] | 17.8 nM | 
CNCC1CC2CC2N1C(=O)c1cc2ccccc2o1 (stereo not drawn) [Example 32, Benzofuran-2-yl-(3-methylaminomethyl-2-azabicyclo[3.1.0]hex-2-yl)methanone tartrate] | 38.3 nM | 
Cc1cncc(N2C(CN)CC3CC32)c1 (stereo not drawn) [Example 26, N-(2-(3-methylpyridin-5-yl)-2-azabicyclo[3.1.0]hex-3-ylmethyl) amine fumarate] | 5.7 nM | 
CCNCC1CC2CC2N1c1cncc(Br)c1 (stereo not drawn) [Example 5, N-[2-(5-Bromopyridin-3-yl)-2-azabicyclo[3.1.0]hex-3-ylmethyl]ethylamine tartarate] | 700 nM | 
NCC1CC2CC2N1c1cnc2ccccc2c1 (stereo not drawn) [Example 29, N-(2-(quinolin-3-yl)-2-azabicyclo[3.1.0]hex-3-ylmethyl) amine fumarate] | 135 nM | 
CNCC1CC2CC2N1C(=O)c1ccco1 (single isomer, unassigned) [Example 3, Furan-2-yl-(3-methylaminomethyl-2-azabicyclo[3.1.0]hex-2-yl)methanone tartarate] | 41.7 nM | 
CNCC1CC2CC2N1c1nccnc1O (stereo not drawn) [Example 20, N-[2-(3-Hydroxypyrazin-2-yl)-2-azabicyclo[3.1.0]hex-3-ylmethyl] methylamine] | 13 nM | 
CNCC1CC2CC2N1c1cncc(OC)c1 (stereo not drawn) [Example 14, N-[2-(5-Methoxypyridin-3-yl)-2-azabicyclo[3.1.0]hex-3-ylmethyl]methylamine fumarate] | 179 nM | 
NCC1CC2CC2N1C(=O)c1ccccn1 (stereo not drawn) [Example 37, (3-Aminomethyl-2-azabicyclo[3.1.0]hex-2-yl) pyridin-2-yl methanone tartrate] | 11.6 nM | 
NCC1CC2CC2N1C(=O)c1cc2ccccc2[nH]1 (stereo not drawn) [Example 34, (3-Aminomethyl-2-azabicyclo[3.1.0]hex-2-yl)-(1H-indol-2-yl)-methanone] | 55 nM | 
CNCC1CC2CC2N1C(=O)c1cc2cccc(Br)c2o1 (stereo not drawn) [Example 33, (7-Bromo benzofuran-2-yl)-(3-methylaminomethyl-2-azabicyclo[3.1.0]hex-2-yl) methanone tartrate] | 3000 nM | 
NCC1CC2CC2N1c1cncc(C(F)(F)F)c1 (stereo not drawn) [Example 28, N-(2-(3-trifluoromethylpyridin-5-yl)-2-azabicyclo[3.1.0]hex-3-ylmethyl) amine fumarate] | 140 nM | 
CNCC1CC2CC2N1c1cnc2ccccc2c1 (stereo not drawn) [Example 31, N-(2-(quinolin-3-yl)-2-azabicyclo[3.1.0]hex-3-ylmethyl) methylamine fumarate] | 1650 nM | 
CNCC1CC2CC2N1c1cncc(C(F)(F)F)c1 (stereo not drawn) [Example 30, N-(2-(3-trifluoromethylpyridin-5-yl)-2-azabicyclo[3.1.0]hex-3-ylmethyl) methylamine fumarate] | 247 nM | 
NCC1CC2CC2N1C(=O)c1cccnc1 (stereo not drawn) [Example 38, (3-Aminomethyl-2-aza bicyclo[3.1.0]hex-2-yl) pyridin-3-yl methanone tartarate] | 45 nM | 
CNCC1CC2CC2N1c1cncc(OC(C)C)c1 (stereo not drawn) [Example 15, N-[2-(5-Isopropoxypyridin-3-yl)-2-azabicyclo[3.1.0]hex-3-ylmethyl]methylamine] | 383 nM | 
NCC1CC2CC2N1C(=O)c1ccncc1 (stereo not drawn) [Example 39, (3-Aminomethyl-2-aza-bicyclo[3.1.0]hex-2-yl) pyridin-4-yl methanone tartarate] | 109 nM | 
NCC1CC2CC2N1c1ccc(C(F)(F)F)nc1 (stereo not drawn) [Example 24, N-(2-(2-trifluoromethylpyridin-5-yl)-2-azabicyclo[3.1.0]hex-3-ylmethyl) amine fumarate] | 681 nM | 
NCC1CC2CC2N1c1cncnc1.O=C(O)/C=C/C(=O)O (stereo not drawn) [Example 22, N-(2-(pyrimidin-5-yl)-2-azabicyclo[3.1.0]hex-3-ylmethyl) amine fumarate] | 58.1 nM | bioavailability [2]: 89 ± 9%; AUC(0-t) ([2]; Intravenous): 2250 ± 228 ng·h/mL; Cmax ([2]; Intravenous): 1380 ± 156 ng/mL; Tmax ([2]; Intravenous): 15 min; half-life ([2]; Intravenous): 80.4 ± 4.2 min; AUC(0-t) ([2]; Per-Oral): 2020 ± 377 ng·h/mL; Cmax ([2]; Per-Oral): 1100 ± 211 ng/mL; Tmax ([2]; Per-Oral): 4.8 min; half-life ([2]; Per-Oral): 97.8 ± 6.6 min
NCC1CC2CC2N1c1ccc(Cl)nc1 (stereo not drawn) [Example 25, N-(2-(2-chloropyridin-5-yl)-2-azabicyclo[3.1.0]hex-3-ylmethyl) amine fumarate] | 6.9 nM | 
NCC1CC2CC2N1c1cncc(Sc2ccccc2)c1 (stereo not drawn) [Example 16, [2-(5-Phenylsulfanylpyridin-3-yl)-2-azabicyclo[3.1.0]hex-3-yl]methylamine fumarate] | 451 nM | 
NCC1CC2CC2N1C(=O)c1ccco1.O=C(O)C(O)C(O)C(=O)O (stereo not drawn) [Example 35, (3-Aminomethyl-2-aza bicyclo[3.1.0]hex-2-yl) furan-2-yl methanone tartrate] | 38.7 nM | Inference (Male Wister rats; 0.3 mg/kg): Active; Exploration time mean ± S.E.M, Familiar object (Male Wister rats; 0.3 mg/kg): 5.30 ± 1.05 s; Exploration time mean ± S.E.M, Novel object (Male Wister rats; 0.3 mg/kg): 14.90 ± 7.74 s; bioavailability [2]: 92 ± 8%; AUC(0-t) ([2]; Intravenous): 1420 ± 71 ng·h/mL; Cmax ([2]; Intravenous): 1780 ± 56 ng/mL; Tmax ([2]; Intravenous): 4.8 min; half-life ([2]; Intravenous): 67.8 ± 9 min; AUC(0-t) ([2]; Per-Oral): 1310 ± 146 ng·h/mL; Cmax ([2]; Per-Oral): 998 ± 175 ng/mL; Tmax ([2]; Per-Oral): 19.8 ± 8.4 min; half-life ([2]; Per-Oral): 89.4 ± 15.6 min
